Test results published in ChEMBL document CHEMBL1201862, “PubChem BioAssay data set” (2004).
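Following 48 hours of exposure in 96-well plates, responses at five concentrations were used to interpolate endpoints linearly. GI50 is the concentration that inhibits growth by half.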 Activity calls are given as the source filed them. No stated cut-off is given here; in the data, active = GI50 up to about 1.1 µM and inactive = higher.

Columns and labels:
Experiment in all cases: inhibition of tumour cell growth, NCI panel, 48 h
HOP-92 = test system: HOP-92
EKVX = test system: EKVX
UACC-62 = test system: UACC-62
OVCAR-4 = test system: OVCAR-4
KM12 = test system: KM12
ACHN = test system: ACHN
786-0 = test system: 786-0
PC-3 = test system: PC-3
DU-145 = test system: DU-145
HL-60 = test system: HL-60
RXF 393 = test system: RXF 393
SK-MEL-2 = test system: SK-MEL-2
M14 = test system: M14
SW-620 = test system: SW-620
COLO 205 = test system: COLO 205
NCI-H460 = test system: NCI-H460
OVCAR-5 = test system: OVCAR-5
SNB-19 = test system: SNB-19
NCI/ADR-RES = test system: NCI/ADR-RES
OVCAR-3 = test system: OVCAR-3

Row | Structure (SMILES) | GI50 (HOP-92) | GI50 (EKVX) | GI50 (UACC-62) | GI50 (OVCAR-4) | GI50 (KM12) | GI50 (ACHN) | GI50 (786-0) | GI50 (PC-3) | GI50 (DU-145) | GI50 (HL-60) | GI50 (RXF 393) | GI50 (SK-MEL-2) | GI50 (M14) | GI50 (SW-620) | GI50 (COLO 205) | GI50 (NCI-H460) | GI50 (OVCAR-5) | GI50 (SNB-19) | GI50 (NCI/ADR-RES) | GI50 (OVCAR-3)
1 | N=C(N)NS(=O)(=O)c1ccc(NC(=O)c2ccc3nc4ccccc4c(N)c3c2)cc1 | > 100 µM (inactive) | > 100 µM (inactive) | > 100 µM (inactive) | > 100 µM (inactive) | 74.6 µM (inactive) | > 100 µM (inactive) | > 100 µM (inactive) | > 100 µM (inactive) | > 100 µM (inactive) | > 100 µM (inactive) | > 100 µM (inactive) | > 100 µM (inactive) | > 100 µM (inactive) | > 100 µM (inactive) | > 100 µM (inactive) | > 100 µM (inactive) | > 100 µM (inactive) | > 100 µM (inactive) | > 100 µM (inactive) | > 100 µM (inactive)
2 | O=c1n(CC2CO2)c(=O)n(CC2CO2)c(=O)n1CC1CO1 (stereo not given) [TEROXIRONE] | 39.3 µM (inactive) | 96.2 µM (inactive) | 2.49 µM (inactive) | 45.2 µM (inactive) | 56.1 µM (inactive) | 1.36 µM (inactive) | 6.22 µM (inactive) | 25 µM (inactive) | 6.97 µM (inactive) | 1.55 µM (inactive) | 37 µM (inactive) | 90.2 µM (inactive) | 9.27 µM (inactive) | 34 µM (inactive) | 14.3 µM (inactive) | 2.03 µM (inactive) | 67.8 µM (inactive) | 26.2 µM (inactive) | 34 µM (inactive) | 32.7 µM (inactive)
3 | CC[P+](C#Cc1ccccc1)(c1ccccc1)c1ccccc1 | 1.92 µM (inactive) | 2.26 µM (inactive) | 1.63 µM (inactive) | 3.15 µM (inactive) | 1.22 µM (inactive) | 3.94 µM (inactive) | 1.57 µM (inactive) | 2.3 µM (inactive) | 3.46 µM (inactive) | 0.324 µM (active) | 0.966 µM (active) | 1.98 µM (inactive) | 1.66 µM (inactive) | 1.17 µM (inactive) | 1.06 µM (active) | 3 µM (inactive) | 4.06 µM (inactive) | 5.92 µM (inactive) | 38.9 µM (inactive) | 1.31 µM (inactive)
4 | N#CCN(Cc1ccccc1)[C@@H]1CCC[C@]1(O)C#Cc1ccc2c(c1)OCO2 | 12.9 µM (inactive) | 27 µM (inactive) | 16.1 µM (inactive) | 15 µM (inactive) | 15.2 µM (inactive) | 18 µM (inactive) | 15.8 µM (inactive) | 19.7 µM (inactive) | 27.4 µM (inactive) | 20.6 µM (inactive) | 15.2 µM (inactive) | 16.4 µM (inactive) | 16.8 µM (inactive) | 22.5 µM (inactive) | 17.4 µM (inactive) | 16.1 µM (inactive) | 16.1 µM (inactive) | 20.7 µM (inactive) | 19.5 µM (inactive) | 14.9 µM (inactive)
5 | CC(=O)Oc1c(C)cc2c(c1C)C(C)CN2C(C)=O (stereo not given) | > 100 µM (inactive) | > 100 µM (inactive) | > 100 µM (inactive) | > 100 µM (inactive) | > 100 µM (inactive) | > 100 µM (inactive) | > 100 µM (inactive) | > 100 µM (inactive) | > 100 µM (inactive) | > 100 µM (inactive) | > 100 µM (inactive) | > 100 µM (inactive) | > 100 µM (inactive) | > 100 µM (inactive) | > 100 µM (inactive) | > 100 µM (inactive) | > 100 µM (inactive) | > 100 µM (inactive) | > 100 µM (inactive) | > 100 µM (inactive)
